Laboratory results as given in the supplement of paper PMC6045584.
± gives the standard deviation of the averaged measurements.

Tests used:
[1] = compound: O=c1[nH]cc(F)c(=O)[nH]1 [FLUOROURACIL]; assay: surviving fraction relative to DMSO-only wells; higher = less growth inhibition; conditions: exposure time: 5 days
Procedure, shortened: (§1)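 In 384-well plates, 250–500 log-phase tumour cells per well were given 24 hours before five days of continuous exposure to inhibitors at 0.5, 1, 5, 10, 50, 100, 500 and 1000 nM. Surviving fraction is luminescence from CellTiter-Glo, normalised to the median of wells containing DMSO alone. Reading took place after 10 minutes at room temperature.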

[2] = compound: CN1CC[C@H](c2c(O)cc(O)c3c(=O)cc(-c4ccccc4Cl)oc23)[C@H](O)C1 [FLAVOPIRIDOL]; assay: as above; conditions: exposure time: 5 days
Procedure, shortened: as §1

| Test System | surviving fraction ([1]; 0.5 nM) | surviving fraction ([1]; 1 nM) | surviving fraction ([1]; 5 nM) | surviving fraction ([1]; 10 nM) | surviving fraction ([1]; 50 nM) | surviving fraction ([1]; 100 nM) | surviving fraction ([1]; 500 nM) | surviving fraction ([1]; 1000 nM) | surviving fraction ([2]; 0.5 nM) | surviving fraction ([2]; 1 nM) | surviving fraction ([2]; 5 nM) | surviving fraction ([2]; 10 nM) | surviving fraction ([2]; 50 nM) | surviving fraction ([2]; 100 nM) | surviving fraction ([2]; 500 nM) | surviving fraction ([2]; 1000 nM) |
| --- | --- | --- | --- | --- | --- | --- | --- | --- | --- | --- | --- | --- | --- | --- | --- | --- |
| CCK81 LARGE INTESTINE | 0.849 ± 0.12 | 0.804 ± 0.081 | 0.764 ± 0.086 | 0.835 ± 0.13 | 0.851 ± 0.079 | 0.751 ± 0.075 | 0.775 ± 0.042 | 0.609 ± 0.084 | 0.883 ± 0.13 | 0.817 ± 0.082 | 0.785 ± 0.15 | 0.813 ± 0.1 | 0.416 ± 0.062 | 0.0273 ± 0.011 | 0.0177 ± 0.0015 | 0.0203 ± 0.00058 |
| G292 BONE | 0.993 ± 0.028 | 0.965 ± 0.051 | 1.02 ± 0.037 | 1.01 ± 0.03 | 0.994 ± 0.051 | 0.939 ± 0.027 | 0.941 ± 0.017 | 0.759 ± 0.054 | 0.97 ± 0.068 | 0.987 ± 0.057 | 1.033 ± 0.0078 | 0.995 ± 0.024 | 0.628 ± 0.039 | 0.18 ± 0.0055 | 0.0742 ± 0.0043 | 0.0712 ± 0.0055 |
| HCC38 BREAST | 1.01 ± 0.2 | 0.97 ± 0.11 | 1.02 ± 0.17 | 1.11 ± 0.14 | 0.8 ± 0.092 | 0.727 ± 0.14 | 0.689 ± 0.027 | 0.644 ± 0.097 | 1.18 ± 0.1 | 1.22 ± 0.13 | 1.33 ± 0.097 | 1.34 ± 0.21 | 1.02 ± 0.15 | 0.571 ± 0.18 | 0.046 ± 0.0053 | 0.0423 ± 0.0093 |
| HCC70 BREAST | 1.06 ± 0.054 | 1.08 ± 0.12 | 1.14 ± 0.083 | 1.12 ± 0.028 | 1.04 ± 0.092 | 1.03 ± 0.06 | 0.778 ± 0.047 | 0.735 ± 0.053 | 1.03 ± 0.06 | 1.02 ± 0.11 | 1.06 ± 0.1 | 1.01 ± 0.11 | 0.784 ± 0.1 | 0.129 ± 0.078 | 0.0557 ± 0.032 | 0.0423 ± 0.019 |
| HMLE3 BREAST | 1.05 ± 0.097 | 1.11 ± 0.03 | 1.09 ± 0.15 | 1.13 ± 0.043 | 1.06 ± 0.091 | 0.955 ± 0.065 | 0.838 ± 0.034 | 0.702 ± 0.15 | 1.07 ± 0.088 | 0.951 ± 0.097 | 1.16 ± 0.087 | 1.11 ± 0.097 | 0.771 ± 0.074 | 0.131 ± 0.029 | 0.026 ± 0.0036 | 0.0233 ± 0.0015 |
| HMT3552 BREAST | 0.951 ± 0.044 | 0.925 ± 0.085 | 0.976 ± 0.08 | 0.85 ± 0.048 | 1.01 ± 0.036 | 0.89 ± 0.02 | 0.939 ± 0.1 | 0.536 ± 0.033 | 1.06 ± 0.041 | 1.05 ± 0.045 | 0.986 ± 0.071 | 0.963 ± 0.027 | 0.232 ± 0.019 | 0.068 ± 0.0027 | 0.066 ± 0.003 | 0.061 ± 0.0027 |
| HS57T BREAST | 1.02 ± 0.026 | 1.04 ± 0.086 | 1.07 ± 0.056 | 0.995 ± 0.044 | 0.972 ± 0.044 | 1 ± 0.041 | 0.926 ± 0.059 | 0.734 ± 0.061 | 1.06 ± 0.053 | 1.06 ± 0.015 | 1.12 ± 0.037 | 1.16 ± 0.035 | 0.667 ± 0.018 | 0.0337 ± 0.0025 | 0.036 ± 0.001 | 0.0327 ± 0.0021 |
| HS578T BREAST | 0.839 ± 0.2 | 1.04 ± 0.043 | 0.904 ± 0.054 | 0.856 ± 0.1 | 0.902 ± 0.19 | 0.817 ± 0.15 | 0.793 ± 0.071 | 0.708 ± 0.041 | 1.13 ± 0.054 | 1.21 ± 0.13 | 1.19 ± 0.29 | 1.21 ± 0.2 | 0.667 ± 0.08 | 0.0923 ± 0.01 | 0.068 ± 0.0036 | 0.0673 ± 0.0025 |
